Data taken from patent US10667478B1, “Metribuzin tolerance alleles in soybean” (Syngenta Participations AG, priority 2017, dated 2020).

Test system: Soybean
Experiment: Metribuzin phytotoxicity screen of soybean lines in greenhouse pots
Format: in vivo, Glycine max
Details: applied after planting, scored 16 days later
Source text: In the case of a visual metribuzin sensitivity detection system, a plant is rated for the percent of visual toxicity compared to a control plant which is sensitive to metribuzin.
Soybean seeds were planted two seeds per pot in two inch pots with clay loam soil (1.36 o.m.). Six replications were arranged in a Randomized Complete Block Design in a greenhouse. Metribuzin was applied at 560 grams active ingredient per hectare after planting. Sixteen days later plants were scored for visual phytotoxicity scored as percent injury.

Compound: CSc1nnc(C(C)(C)C)c(=O)n1N [Metribuzin, metribuzin]
- Injury (%) @ 560 g ai/ha (soybean line A1036478): 0%
- Injury (%) @ 560 g ai/ha (soybean line AR1111926): 20%
- Injury (%) @ 560 g ai/ha (soybean line AR1112922): 0%
- Injury (%) @ 560 g ai/ha (soybean line AR1210100): 15%
- Injury (%) @ 560 g ai/ha (soybean line AR1210104): 45%
- Injury (%) @ 560 g ai/ha (soybean line AR1210856): 9%
- Injury (%) @ 560 g ai/ha (soybean line AR1210886): 0%
- Injury (%) @ 560 g ai/ha (soybean line AR1211262): 0%
- Injury (%) @ 560 g ai/ha (soybean line AR1211948): 44%
- Injury (%) @ 560 g ai/ha (soybean line BK1011572): 23%
- Injury (%) @ 560 g ai/ha (soybean line BK1211980): 17%
- Injury (%) @ 560 g ai/ha (soybean line BY1210428): 54%
- Injury (%) @ 560 g ai/ha (soybean line BY1211100): 49%
- Injury (%) @ 560 g ai/ha (soybean line BY1212083): 0%
- Injury (%) @ 560 g ai/ha (soybean line BY1212201): 3%
- Injury (%) @ 560 g ai/ha (soybean line BY1212223): 0%
- Injury (%) @ 560 g ai/ha (soybean line BY1213080): 0%
- Injury (%) @ 560 g ai/ha (soybean line CC1210319): 0%
- Injury (%) @ 560 g ai/ha (soybean line CC1211481): 12%
- Injury (%) @ 560 g ai/ha (soybean line CC1211818): 0%
- Injury (%) @ 560 g ai/ha (soybean line CC1212005): 35%
- Injury (%) @ 560 g ai/ha (soybean line CC1215412): 0%
- Injury (%) @ 560 g ai/ha (soybean line CC1215903): 0%
- Injury (%) @ 560 g ai/ha (soybean line CC1215927): 45%
- Injury (%) @ 560 g ai/ha (soybean line CC1217018): 0%
- Injury (%) @ 560 g ai/ha (soybean line CC1217019): 0%
- Injury (%) @ 560 g ai/ha (soybean line CE1210923): 0%
- Injury (%) @ 560 g ai/ha (soybean line CE1210997): 0%
- Injury (%) @ 560 g ai/ha (soybean line CE1211033): 37%
- Injury (%) @ 560 g ai/ha (soybean line CE1211109): 0%
- Injury (%) @ 560 g ai/ha (soybean line CE1211211): 14%
- Injury (%) @ 560 g ai/ha (soybean line CE1211264): 28%
- Injury (%) @ 560 g ai/ha (soybean line CE1211339): 0%
- Injury (%) @ 560 g ai/ha (soybean line CE1211377): 0%
- Injury (%) @ 560 g ai/ha (soybean line CE1211403): 0%
- Injury (%) @ 560 g ai/ha (soybean line CE1211693): 0%
- Injury (%) @ 560 g ai/ha (soybean line CE1212024): 0%
- Injury (%) @ 560 g ai/ha (soybean line CE1213779): 38%
- Injury (%) @ 560 g ai/ha (soybean line CE1214014): 47%
- Injury (%) @ 560 g ai/ha (soybean line CE1214443): 0%
- Injury (%) @ 560 g ai/ha (soybean line CE1214602): 0%
- Injury (%) @ 560 g ai/ha (soybean line CE1214610): 47%
- Injury (%) @ 560 g ai/ha (soybean line G01010146): 0%
- Injury (%) @ 560 g ai/ha (soybean line GO1110272): 54%
- Injury (%) @ 560 g ai/ha (soybean line GO1110602): 53%
- Injury (%) @ 560 g ai/ha (soybean line LL511): 92%
- Injury (%) @ 560 g ai/ha (soybean line LL513N): 2%
- Injury (%) @ 560 g ai/ha (soybean line LL563N): 5%
- Injury (%) @ 560 g ai/ha (soybean line LL595N): 96%
- Injury (%) @ 560 g ai/ha (soybean line NE0912640): 0%
- Injury (%) @ 560 g ai/ha (soybean line NE1212391): 0%
- Injury (%) @ 560 g ai/ha (soybean line NE1214412): 5%
- Injury (%) @ 560 g ai/ha (soybean line NE1214737): 0%
- Injury (%) @ 560 g ai/ha (soybean line NE1215099): 0%
- Injury (%) @ 560 g ai/ha (soybean line OW1011073): 11%
- Injury (%) @ 560 g ai/ha (soybean line OW1011829): 50%
- Injury (%) @ 560 g ai/ha (soybean line OW1012353): 17%
- Injury (%) @ 560 g ai/ha (soybean line OW1113014): 34%
- Injury (%) @ 560 g ai/ha (soybean line OW1210742): 45%
- Injury (%) @ 560 g ai/ha (soybean line OW1212626): 25%
- Injury (%) @ 560 g ai/ha (soybean line OW1213195): 28%
- Injury (%) @ 560 g ai/ha (soybean line OW1213207): 28%
- Injury (%) @ 560 g ai/ha (soybean line OW1213282): 23%
- Injury (%) @ 560 g ai/ha (soybean line OW1213323): 42%
- Injury (%) @ 560 g ai/ha (soybean line S77-T7): 23%
- Injury (%) @ 560 g ai/ha (soybean line S78-G6): 10%
- Injury (%) @ 560 g ai/ha (soybean line SJ1114205): 0%
- Injury (%) @ 560 g ai/ha (soybean line SJ1210059): 0%
- Injury (%) @ 560 g ai/ha (soybean line SJ1210512): 11%
- Injury (%) @ 560 g ai/ha (soybean line SJ1210526): 0%
- Injury (%) @ 560 g ai/ha (soybean line SJ1210678): 0%
- Injury (%) @ 560 g ai/ha (soybean line SJ1210829): 0%
- Injury (%) @ 560 g ai/ha (soybean line SJ1210844): 0%
- Injury (%) @ 560 g ai/ha (soybean line SJ1210862): 0%
- Injury (%) @ 560 g ai/ha (soybean line SJ1210867): 25%
- Injury (%) @ 560 g ai/ha (soybean line SJ1211190): 55%
- Injury (%) @ 560 g ai/ha (soybean line SJ1212283): 0%
- Injury (%) @ 560 g ai/ha (soybean line SJ1213014): 0%
- Injury (%) @ 560 g ai/ha (soybean line SJ1213512): 0%
- Injury (%) @ 560 g ai/ha (soybean line SJ1213805): 48%
- Injury (%) @ 560 g ai/ha (soybean line WN1116259): 0%
- Injury (%) @ 560 g ai/ha (soybean line WN1118256): 47%
- Injury (%) @ 560 g ai/ha (soybean line WN1118297): 0%
